Patent US8148373B2, “Compounds” (AstraZeneca AB, priority 2008, dated 2012)

How the values were obtained:
[1] = target: T1, Adrenergic β2 (H292 cells) (Homo sapiens, UniProt P07550); test: Adrenergic β2 Mediated cAMP Production, single concentration 1 μM; format: cell-based; conditions: percentage of the maximum response generated by 1E-07M formoterol; for activation at 1 µM: NCI-H292, 1 μM compound, read-out: β2 (% effect at 1 μM); for β2 (% effect at 1 μM): 1 μM compound
T1 construct: endogenous in cells; host or cells: H292 cells
Summary of the method: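 H292 cells were plated overnight, pre-treated with 300 μM rolipram for 10 min, then exposed to compound at 1 μM final (1% DMSO) for 60 min at room temperature. cAMP in the lysates was measured by AlphaScreen against a standard curve and expressed as % of the maximal response to 1E-07M formoterol.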

[2] = target: T2, human muscarinic acetylcholine M3 receptor (M3-ACh) (Homo sapiens, UniProt P20309); test: Muscarinic 3 Receptor Binding Assay, % inhibition specific binding at 1 μM; conditions: 1 μM compound, % inhibition specific [3H]-NMS binding
T2 construct: expressed in transfected cells; host or cells: CHO-K1 (Chinese Hamster Ovary) cell membranes
Summary of the method: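 Competition binding of 0.1 nM [3H]NMS to membranes from CHO-K1 cells expressing human M3, SPA format, with compound at 1 μM in 20 mM HEPES pH 7.4, 5 mM MgCl2, 1% DMSO. Incubated 16 h at room temperature; non-specific binding defined by 1 μM atropine; value is % inhibition of specific binding.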

T2 sequence (P20309 whole entry): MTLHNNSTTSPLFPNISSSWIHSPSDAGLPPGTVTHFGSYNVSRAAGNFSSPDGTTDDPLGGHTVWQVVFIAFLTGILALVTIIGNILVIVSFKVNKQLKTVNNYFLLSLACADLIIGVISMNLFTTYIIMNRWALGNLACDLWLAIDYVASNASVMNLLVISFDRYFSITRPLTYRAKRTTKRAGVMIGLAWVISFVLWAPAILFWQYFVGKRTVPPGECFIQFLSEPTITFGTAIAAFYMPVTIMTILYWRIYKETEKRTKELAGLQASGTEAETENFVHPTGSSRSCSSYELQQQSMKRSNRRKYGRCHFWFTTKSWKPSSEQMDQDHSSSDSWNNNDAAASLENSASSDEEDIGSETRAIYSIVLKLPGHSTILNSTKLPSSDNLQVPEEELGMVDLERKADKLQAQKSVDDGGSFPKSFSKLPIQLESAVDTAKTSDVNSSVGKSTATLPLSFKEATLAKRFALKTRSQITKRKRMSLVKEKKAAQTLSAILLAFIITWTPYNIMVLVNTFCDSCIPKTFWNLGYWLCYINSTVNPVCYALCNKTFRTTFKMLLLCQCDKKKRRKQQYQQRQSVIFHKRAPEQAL
T1 sequence (P07550 whole entry): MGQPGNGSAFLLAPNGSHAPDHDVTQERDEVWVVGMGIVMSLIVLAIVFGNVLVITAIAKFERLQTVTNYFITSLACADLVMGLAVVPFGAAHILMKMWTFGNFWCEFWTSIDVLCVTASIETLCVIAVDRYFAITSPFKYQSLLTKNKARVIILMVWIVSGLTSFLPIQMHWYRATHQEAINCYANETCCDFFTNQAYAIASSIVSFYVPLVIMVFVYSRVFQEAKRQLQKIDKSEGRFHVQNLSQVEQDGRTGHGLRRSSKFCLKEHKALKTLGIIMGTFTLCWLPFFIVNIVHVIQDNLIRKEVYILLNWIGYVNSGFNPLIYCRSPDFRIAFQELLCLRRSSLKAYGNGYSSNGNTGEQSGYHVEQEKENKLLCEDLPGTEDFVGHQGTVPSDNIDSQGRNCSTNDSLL

Structure (SMILES)	activation at 1 µM [1]	inhibition at 1 µM [2]	β2 (% effect at 1 μM) [1]	M3 (% inhibition at 1 μM) ([2]; 1 µM)	M3 (% inhibition at 1 μM) [2]
O=C(c1cccc2[nH]ccc12)N1CCOC2(CCN(Cc3cc(F)cc(CCNC[C@H](O)c4ccc(O)c5[nH]c(=O)sc45)c3)CC2)C1 [Example 165, (R)-7-(2-(3-((4-(1H-indole-4-carbonyl)-1-oxa-4,9-diazaspiro[5.5]undecan-9-yl)methyl)-5-fluorophenethylamino)-1-hydroxyethyl)-4-hydroxybenzo[d]thiazol-2(3H)-one]	89%	11%			
Cc1nc(CC(=O)N2CCOC3(CCN(Cc4cc(F)cc(CCNC[C@H](O)c5ccc(O)c6[nH]c(=O)sc56)c4)CC3)C2)cs1 [Example 166, (R)-7-(2-(3-fluoro-5-((4-(2-(2-methylthiazol-4-yl)acetyl)-1-oxa-4,9-diazaspiro[5.5]undecan-9-yl)methyl)phenethylamino)-1-hydroxyethyl)-4-hydroxybenzo[d]thiazol-2(3H)-one]	95%	69%			
Cc1noc(C)c1CC(=O)N1CCOC2(CCN(Cc3cc(F)cc(CCNC[C@H](O)c4ccc(O)c5[nH]c(=O)sc45)c3)CC2)C1 [Example 167, (R)-7-(2-(3-((4-(2-(3,5-dimethylisoxazol-4-yl)acetyl)-1-oxa-4,9-diazaspiro[5.5]undecan-9-yl)methyl)-5-fluorophenethylamino)-1-hydroxyethyl)-4-hydroxybenzo[d]thiazol-2(3H)-one]	100%	8%			
O=C(Cn1ccc2cccc(Cl)c21)N1CCOC2(CCN(Cc3cc(F)cc(CCNC[C@H](O)c4ccc(O)c5[nH]c(=O)sc45)c3)CC2)C1 [Example 168, (R)-7-(2-(3-((4-(2-(7-chloro-1H-indol-1-yl)acetyl)-1-oxa-4,9-diazaspiro[5.5]undecan-9-yl)methyl)-5-fluorophenethylamino)-1-hydroxyethyl)-4-hydroxybenzo[d]thiazol-2(3H)-one]	95%	29%			
O=C(c1ccc(-c2ccccc2)cc1)N1CCOC2(CCN(Cc3cc(F)cc(CCNC[C@H](O)c4ccc(O)c5[nH]c(=O)sc45)c3)CC2)C1 [Example 169, (R)-7-(2-(3-((4-(biphenylcarbonyl)-1-oxa-4,9-diazaspiro[5.5]undecan-9-yl)methyl)-5-fluorophenethylamino)-1-hydroxyethyl)-4-hydroxybenzo[d]thiazol-2(3H)-one]			92%	−2%	
Cc1nn(-c2ccccc2)nc1C(=O)N1CCOC2(CCN(Cc3cc(F)cc(CCNC[C@H](O)c4ccc(O)c5[nH]c(=O)sc45)c3)CC2)C1 [Example 170, (R)-7-(2-(3-fluoro-5-((4-(5-methyl-2-phenyl-2H-1,2,3-triazole-4-carbonyl)-1-oxa-4,9-diazaspiro[5.5]undecan-9-yl)methyl)phenethylamino)-1-hydroxyethyl)-4-hydroxybenzo[d]thiazol-2(3H)-one]	102%	42%			
O=C(c1ccc(-c2ccccc2)cc1)N1CCOC2(CCN(Cc3cc(F)cc(CCNC[C@H](O)c4ccc(O)c5[nH]c(=O)sc45)c3)CC2)C1 [Example 171, (R)-7-(2-(3-((4-(biphenylcarbonyl)-1-oxa-4,9-diazaspiro[5.5]undecan-9-yl)methyl)-5-fluorophenethylamino)-1-hydroxyethyl)-4-hydroxybenzo[d]thiazol-2(3H)-one]			86%	11%	
O=C(c1cnc2ccccc2c1)N1CCOC2(CCN(Cc3cc(F)cc(CCNC[C@H](O)c4ccc(O)c5[nH]c(=O)sc45)c3)CC2)C1 [Example 172, (R)-7-(2-(3-fluoro-5-((4-(quinoline-3-carbonyl)-1-oxa-4,9-diazaspiro[5.5]undecan-9-yl)methyl)phenethylamino)-1-hydroxyethyl)-4-hydroxybenzo[d]thiazol-2(3H)-one]	98%	19%			
O=C(COCCc1ccccc1)N1CCOC2(CCN(Cc3cc(F)cc(CCNC[C@H](O)c4ccc(O)c5[nH]c(=O)sc45)c3)CC2)C1 [Example 174, (R)-7-(2-(3-fluoro-5-((4-(2-phenethoxyacetyl)-1-oxa-4,9-diazaspiro[5.5]undecan-9-yl)methyl)phenethylamino)-1-hydroxyethyl)-4-hydroxybenzo[d]thiazol-2(3H)-one]	89%	41%			
O=C(c1cnc(-c2ccccc2)[nH]1)N1CCOC2(CCN(Cc3cc(F)cc(CCNC[C@H](O)c4ccc(O)c5[nH]c(=O)sc45)c3)CC2)C1 [Example 175, (R)-7-(2-(3-fluoro-5-((4-(2-phenyl-1H-imidazole-5-carbonyl)-1-oxa-4,9-diazaspiro[5.5]undecan-9-yl)methyl)phenethylamino)-1-hydroxyethyl)-4-hydroxybenzo[d]thiazol-2(3H)-one]	94%	3%			
CC(C)(C(=O)N1CCOC2(CCN(Cc3cc(F)cc(CCNC[C@H](O)c4ccc(O)c5[nH]c(=O)sc45)c3)CC2)C1)c1ccccc1 [Example 176, (R)-7-(2-(3-fluoro-5-((4-(2-methyl-2-phenylpropanoyl)-1-oxa-4,9-diazaspiro[5.5]undecan-9-yl)methyl)phenethylamino)-1-hydroxyethyl)-4-hydroxybenzo[d]thiazol-2(3H)-one]	87%	16%			
O=C(Cn1c(C(F)(F)F)nc2ccccc21)N1CCOC2(CCN(Cc3cc(F)cc(CCNC[C@H](O)c4ccc(O)c5[nH]c(=O)sc45)c3)CC2)C1 [Example 177, (R)-7-(2-(3-fluoro-5-((4-(2-(2-(trifluoromethyl)-1H-benzo[d]imidazol-1-yl)acetyl)-1-oxa-4,9-diazaspiro[5.5]undecan-9-yl)methyl)phenethylamino)-1-hydroxyethyl)-4-hydroxybenzo[d]thiazol-2(3H)-one]	78%	1%			
CC(C)c1cc(C(=O)N2CCOC3(CCN(Cc4cc(F)cc(CCNC[C@H](O)c5ccc(O)c6[nH]c(=O)sc56)c4)CC3)C2)no1 [Example 179, (R)-7-(2-(3-fluoro-5-((4-(5-isopropylisoxazole-3-carbonyl)-1-oxa-4,9-diazaspiro[5.5]undecan-9-yl)methyl)phenethylamino)-1-hydroxyethyl)-4-hydroxybenzo[d]thiazol-2(3H)-one]	95%	66%			
Cc1cc(C(=O)N2CCOC3(CCN(Cc4cc(F)cc(CCNC[C@H](O)c5ccc(O)c6[nH]c(=O)sc56)c4)CC3)C2)oc1C [Example 180, (R)-7-(2-(3-((4-(4,5-dimethylfuran-2-carbonyl)-1-oxa-4,9-diazaspiro[5.5]undecan-9-yl)methyl)-5-fluorophenethylamino)-1-hydroxyethyl)-4-hydroxybenzo[d]thiazol-2(3H)-one]	92%	51%			
O=C(COc1ccc(O)cc1)N1CCOC2(CCN(Cc3cc(F)cc(CCNC[C@H](O)c4ccc(O)c5[nH]c(=O)sc45)c3)CC2)C1 [Example 181, (R)-7-(2-(3-fluoro-5-((4-(2-(4-hydroxyphenoxy)acetyl)-1-oxa-4,9-diazaspiro[5.5]undecan-9-yl)methyl)phenethylamino)-1-hydroxyethyl)-4-hydroxybenzol[d]thiazol-2(3H)-one]			86%		10%
